{
  "source": "patent US9623031B2",
  "about": "“Compositions, methods and kits for treating cancer” (priority 2011, dated 2017)",
  "key": {"[1]": {"system": "FV-LSCs (M34^+Kit^+Sca1^+)", "assay": "Apoptosis of FV-LSCs treated ex vivo (annexin V, flow cytometry)", "assay_type": "cell-based, mouse", "settings": "36 h", "quoted_text": "(§1) Apoptosis of LSCs was performed using annexin V as described below in Supplementary Information and Methods.\nOn day 14 after infection, spleens were isolated and a single cell suspension of spleen cells was generated. The cells were filtered through a 70 μm sterile filter and flow-through cells were resuspended in RBC lysis buffer followed by centrifugation. Leukemia stem cells were isolated by FACS. Spleen cells were labeled with anti-Kit, Sca1 (BioLegend, San Diego, Calif.) and M34 antibodies. […] As indicated M34^+Kit^+Sca1^+ cells were cultured in Methocult media (Stem Cell Technologies Vancouver BC) M3334 supplemented with 200 ng/ml Sonic Hedgehog (Shh), 15 ng/ml bone morphogenetic protein-4 (BMP4) (both from R&D Systems Minneapolis, Minn.), and 50 ng/ml stem cell factor (SCF; Peprotech).\n(§2) The LSCs were diluted in DMEM, resuspended using a 16-gauge needle, and collected by centrifugation. 1×10^5 cells were resuspended in 200 μl of binding buffer (0.1 M HEPES with 1.4 M NaCl, 25 mM CaCl2, pH 7.4). Annexin V FITC (BD Biosciences) was incubated with cells for 15 min on ice followed by flow cytometric analysis.\nThe cells were stained with annexin V-FITC and analyzed by flow cytometry. […] Means±s.e.m. *P<0.001 compared to vehicle (PBS). […] Inset: Effect of rosiglitazone on the apoptosis of LSC. Rosiglitazone (0.1-2.0 μM) was incubated with LSC in the culture media for 36 h as described earlier and the cells were subjected to annexin-V staining followed by flow cytometry. […] LSC were treated ex vivo with indicated concentrations of each compound for 36 h. Mean±s.e.m. shown *P<0.001."}, "LSCs": {"system": "LSCs", "assay": "Apoptosis of LSCs as summarised in the discussion (model not specified or both models)", "assay_type": "cell-based, mouse", "quoted_text": "as §1, §2"}, "[2]": {"system": "Friend virus (FV)-induced erythroleukemia", "assay": "FV-induced erythroleukemia in FV-infected mice, intraperitoneal treatment", "assay_type": "in vivo, mouse", "description": "FV-induced erythroleukemia and production of FV leukemia stem cells (FV-LSCs): BALB/c mice were infected with FV as previously described (Subramanian A et al., J Virol. 2008; 82:382-393; Harandi O F et al., J Clin Invest. 2010; 120:4507-4519). On day 14 after infection, spleens were isolated and a single cell suspension of spleen cells was generated. The cells were filtered through a 70 μm sterile filter and flow-through cells were resuspended in RBC lysis buffer followed by centrifugation. Leukemia stem cells were isolated by FACS. Spleen cells were labeled with anti-Kit, Sca1 (BioLegend, San Diego, Calif.) and M34 antibodies. M34 is a monoclonal antibody that recognizes the envelope protein of SFFV (Chesebro B et al., Virology. 1981; 112:131-144) and was used as previously described (Subramanian A et al., J Virol. 2008; 82:382-393). As indicated M34^+Kit^+Sca1^+ cells were cultured in Methocult media (Stem Cell Technologies Vancouver BC) M3334 supplemented with 200 ng/ml Sonic Hedgehog (Shh), 15 ng/ml bone morphogenetic protein-4 (BMP4) (both from R&D Systems Minneapolis, Minn.), and 50 ng/ml stem cell factor (SCF; Peprotech). For CFU-FV assays, cells were plated in methylcellulose media containing fetal calf serum, but lacking added growth factors as previously described (Mager D L et al., Proc Natl Acad Sci USA. 1981; 78:1703-1707).\nComplete blood counts of mice treated with Δ^12-PGJ3 (0.05 mg/kg) were examined. There is no difference in treated mice and untransplanted control mice in terms of white blood cell counts, red blood cell counts or platelet counts. Changes in hematological parameters in FV-infected mice upon treatment with CyPGs were examined. FV-infected Balb/c mice were treated with Δ^12-PGJ3 (0.05 mg/kg) intraperitoneally for 7 d following which the mice were sacrificed and hematological parameters were analyzed on an Advia blood analyzer. FV-infected Δ^12-PGJ3 treated mice were compared to infected vehicle controls. N=5 per group, all data are means±s.e.m. *P<0.05. 3% w/v hydroxypropyl-3-cyclodextrin was used as a vehicle in in vivo experiments. Spleen sizes of FV-infected mice that were treated with either vehicle, 9,10-dihydro-15d-PGJ2 (0.05 mg/kg), or 15d-PGJ2 (0.05 mg/kg) were examined; N=3 pre group. Hematological parameters of Balb/c uninfected, infected, and 15d-PGJ2 treated mice were examined. N=5 per group. All data were means±s.e.m. *P<0.05.\nFV-LSC were targeted by 15d-PGJ2 in the spleen of FV-infected mice. FV-infected mice were treated with 15d-PGJ2 or 9,10-dihydro-15d-PGJ2 at 0.05 mg/kg for 7 d. The splenic LSC (M34^+Sca1^+Kit^+) cells were analyzed by flow cytometry on day 14 post infection. […] Uninfected and infected vehicle controls were used for comparison. N=3; *P<0.05. […] The colonies were counted 10-14 days after plating. N=3 mice per group, *p<0.05."}, "p53 [3]": {"system": "p53", "assay": "p53 expression in FV-LSCs treated ex vivo (RT-PCR, nuclear extracts)", "assay_type": "cell-based, mouse", "settings": "12 h"}, "p53 [4]": {"system": "p53", "assay": "p53 expression in BCR-ABL+ LSCs treated ex vivo", "assay_type": "cell-based, mouse", "settings": "25 nM ex vivo"}, "[5]": {"biological_target": "T1, ligand-binding domain of human PPAPγ fused to yeast GAL4 DNA binding domain (Homo sapiens, UniProt P37231)", "T1 construct": "expressed in transfected cells; host or cells: HEK293T", "T1 sequence (P37231 238-503 limits assumed)": "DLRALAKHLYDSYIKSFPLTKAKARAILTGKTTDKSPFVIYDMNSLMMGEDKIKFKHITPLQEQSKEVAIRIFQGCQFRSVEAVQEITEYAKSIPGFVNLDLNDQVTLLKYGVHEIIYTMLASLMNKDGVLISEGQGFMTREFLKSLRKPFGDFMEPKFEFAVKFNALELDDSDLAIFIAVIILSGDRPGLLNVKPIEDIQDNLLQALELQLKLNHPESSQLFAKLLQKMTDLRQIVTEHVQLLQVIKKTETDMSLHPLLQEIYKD", "assay": "PPARγ reporter assay in HEK293T cells (GAL4 fusion, pGalRE-Luc)", "assay_type": "cell-based", "settings": "0.01 μM to 1.0 μM"}, "[6]": {"system": "primary human AML cells; LSCs (CD34+CD38−CD123+)", "assay": "Apoptosis of primary human AML cells and AML LSCs (annexin V)", "assay_type": "cell-based", "method": "In this experiment, 110,000/well primary AML cells were cultured in above specified media for 6 and 12 hrs. Cells were collected and washed once with ice cold PBS. The cells were resuspended in 200 ul 1× Apoptosis buffer with annexin-V PE to all tubes. The cells were washed in PBS and resuspended in 600 ul PBS and transfer into flow tubes and analyzed for apoptosis (Annexin V+ cells) on FC-500. […] In this experiment, 110,000/well AML cells were cultured in earlier mentioned media for 6 and 12 hrs. Cells were collected and washed once in PBS and resuspended in 200 ul PBS and blocked with FC receptor antibody 10 mins RT. The following antibodies were added: CD38, CD123, CD34, CD117 (BD bioscience) for 1 hr on ice. Cells were washed in PBS once and resuspended in 200 ul of apoptotic buffer, and annexin V was added and incubated for 15 mins. Apoptotic cells (Annexin V+ cells) were counted by flow cytometry. […] Cells were collected and washed once in PBS and resuspended in 200 ul PBS and blocked with FC receptor antibody 10 mins RT. The following antibodies were added: CD38, CD123, CD34 (BD bioscience) for 1 hr on ice. Cells were washed in PBS once and resuspended in 200 ul of apoptotic buffer, and annexin V was added and incubated for 15 mins. Apoptotic cells (Annexin V+ cells) were counted by flow cytometry.\nReferring to the results shown in FIG. 16, these experiments were performed with primary AML stem cells isolated from a patient. […] In an identical experiment, the cells were also treated with a synthetic DP agonist, ZK118182 (100 nM). Apoptosis of cells (by annexin V staining) was measured using flow cytometry."}, "[7]": {"system": "FV-LSCs transplanted into BALB/c-Stk^−/− mice", "quoted_text": "Transplant of FV-LSCs into BALB/c-Stk^−/− mice: FV-LSCs were generated as described above. 2.5×10^5 FV-LSCs were transplanted into BALB/c-Stk^−/− mice by retro-orbital injection. Six weeks after transplant the mice were treated with CyPGs or vehicle control as indicated in the text.\nTreatment of Mice with PGs: Mice with FV-induced erythroleukemia or MIGR-BCR-ABL induced CML were treated on the indicated days with CyPGs. Mice were treated with a daily intraperitoneal injection of Δ^12-PGJ3 (0.01-0.1 mg/kg), 15d-PGJ2 (0.1 mg/kg), or 9,10-dihydro-15d-PGJ2 (0.1 mg/kg) for 7 days. All three compounds were formulated with hydroxypropyl-β-cyclodextrin (30% w/v; Sigma; vehicle control).\nStk^−/− mice are resistant to Friend virus infection so the leukemia developed by the transplanted mice is result of the transplanted LSCs and not FV infection. […] LSCs sorted from the spleens of FV-infected mice were transplanted into Stk^−/− mice (on a Balb/c background). After 6 weeks such mice were treated daily for 1 week with vehicle (hydroxypropyl-β-cyclodextrin), 15d-PGJ2 (0.05 mg/kg), or 9,10-dihydro-15d-PGJ2 (0.05 mg/kg) by intraperitoneal injection. The mice were sacrificed 51 days post LSC transplantation for analysis. An analysis of spleens of mice comparing splenomegaly in vehicle, 15d-PGJ2, or 9,10-dihydro-15d-PGJ2 treated transplanted mice was performed. Spleen weight compared to control (untransplanted mice) after treatment and WBC counts in the peripheral blood of the mice after treatment were examined, and a flow cytometric analysis of the spleen of untransplanted and LSC transplanted mice after treatment was performed. All data were mean±s.e.m. *p<0.05 compared to control or 9,10-dihydro-15d-PGJ2 treated groups. N=5 per group."}},
  "data": [
    {"molecule": "CC/C=C\\C[C@H](O)C/C=C1/C(=O)C=C[C@@H]1C/C=C\\CCCC(=O)O", "note": "[Δ^12-PGJ3, Δ^12-prostaglandin J3]", "values": [
      {"measurement": "increase in apoptosis of FV-LSCs", "setting": "[1]; 25 nM", "value": "~75", "unit": "%"},
      {"measurement": "apoptosis of FV-LSCs, dose response", "setting": "[1]; annexin V", "value": "identical effect"},
      {"measurement": "targeting of LSCs for apoptosis", "setting": "LSCs; FV-induced leukemia and BCR-ABL+ retrovirus-based murine CML model", "value": "targeted LSCs for apoptosis"},
      {"measurement": "IC50", "setting": "LSCs; LSC type not specified, read-out: IC50, concentration required to cause apoptosis of LSCs", "value": 7, "unit": "nM"},
      {"measurement": "reduction of splenomegaly", "setting": "[2]; 0.01 mg/kg/day i.p. for 7 days", "value": "~50", "unit": "%"},
      {"measurement": "LSCs (Sca1+Kit+M34+) in the spleen", "setting": "[2]; 0.05 mg/kg i.p. 7 d, flow cytometry day 14 post infection", "value": "completely eradicated"},
      {"measurement": "splenomegaly", "setting": "[2]; 0.05 and 0.1 mg/kg/day i.p. for 7 days from day 7 post infection", "value": "no signs of splenomegaly"},
      {"measurement": "spleen histology (H&E)", "setting": "[2]; day 14 post infection", "value": "better demarcation of peri-arteriolar lymphoid tissue"},
      {"measurement": "total leukocyte and reticulocyte counts", "setting": "[2]; i.p. 7 days", "value": "decreased to normal levels"},
      {"measurement": "Bax expression in spleen", "setting": "[2]; mouse, in vivo", "value": "activation of Bax expression"},
      {"measurement": "Friend virus viral replication", "setting": "[2]; mouse, in vivo", "value": "not the viral replication"},
      {"measurement": "TUNEL staining of splenic sections", "setting": "[2]; mouse, in vivo", "value": "increased apoptosis"},
      {"measurement": "CFU-FV colony formation", "setting": "[2]; spleen cells of treated mice plated without growth factors", "value": "completely reduced to background levels"},
      {"measurement": "p53 expression in total spleen", "setting": "[2]; treated for 1 week", "value": "significant expression of p53 in the spleen"},
      {"measurement": "p53 expression at transcript level", "setting": "p53 [3]; 10 or 25 nM", "value": "significant upregulation of p53 expression"},
      {"measurement": "nuclear levels of p53 protein", "setting": "p53 [3]; sorted LSC", "value": "increase in the nuclear levels of p53 protein"},
      {"measurement": "p53 mRNA", "setting": "p53 [4]", "value": "increase in p53 transcription"},
      {"measurement": "PPARγ activation in reporter assay", "setting": "[5]", "value": "unable to activate PPARγ"},
      {"measurement": "apoptosis of AML LSCs (Annexin V+ fraction of CD34+CD38−CD123+ cells)", "setting": "[6]; 100 nM, 6 h, patients #100810, #123009, #033107, #041909, #101308", "value": "targeted the LSCs in all these samples"},
      {"measurement": "apoptosis of primary human AML cells (Annexin V+)", "setting": "[6]; 100 nM, 6 and 12 hrs", "value": "induces apoptosis of primary human AML cells"},
      {"measurement": "apoptosis of primary AML cells from bone marrow of an AML patient (72% CD133+)", "setting": "[6]; 5, 50, 100 nM, 6 and 24 h, annexin V", "value": "effective even in human primary leukemia stem cells"},
      {"measurement": "leukocyte counts", "setting": "[7]; 0.025 mg/kg and 0.05 mg/kg, 1 week", "value": "concomitant decrease in leukocyte counts"},
      {"measurement": "hematocrit, WBC counts and reticulocyte counts", "setting": "[7]; FV-induced leukemia, FIG. 3C", "value": "significantly decreased"},
      {"measurement": "LSCs (M34+Sca1+Kit+) in the spleen", "setting": "[7]; flow cytometry after 1 week i.p. treatment", "value": "complete ablation"},
      {"measurement": "hematological parameters (complete blood counts) versus untransplanted control mice", "setting": "[7]; mouse, in vivo", "value": "does not adversely affect hematological parameters"},
      {"measurement": "pChk2 levels in total spleen extracts", "setting": "[7]; mouse, in vivo", "value": "increase in the levels of pChk2"},
      {"measurement": "splenomegaly", "setting": "[7]; Δ^12-PGJ3 0.025 and 0.05 mg/kg, comparators 0.05 mg/kg, i.p. 1 week", "value": "significantly decreased splenomegaly"}
    ]}
  ]
}
